Assay results taken from US20090068290A1, “BIFEPRUNOX DOSES FOR TREATING SCHIZOPHRENIA” (priority 2006, published 2009).

What was measured:
[1] = test system: adult subjects with schizophrenia; test: CGI Improvement score, Clinical Study Two; format: in vivo, human; conditions: 40 mg, LOCF
Description: Rating scale assessments were performed weekly, except for week 5, to measure the change from baseline to endpoint of the PANSS total score. Other assessments included: PANSS positive symptom subscale score, PANSS negative symptom subscale score, PANSS general pschopathology subscale score, BPRS total score, BPRS psychosis score, the CGI-S score, the CGI-I score, responder rates based on the PANSS total score, and the Calgary Depression Scale for Schizophrenia (CDSS). […]
(§1) Subjects who completed this study had the option to continue in the long-term. […] Risperidone-treated subjects were titrated from 2 mg to 6 mg daily over a three-day period and were subsequently maintained at 6 mg/day for the remainder of the treatment period. […] Blood samples were also obtained at Screening/Baseline, Week 3, and Week 6 for clinical laboratory assessments.

[2] = test system: adult subjects with schizophrenia; test: CGI responder rate, Clinical Study Two; format: in vivo, human; conditions: LOCF
Description: Notable differences were also observed between the 30 mg bifeprunox group and placebo for the change from baseline to endpoint in PANSS general psychopathology subscale score, BPRS total score, BPRS psychosis cluster score, PANSS responder rate, and CGI-I responder rate. In the study, a PANSS responder refers to a subject whose PANSS total score decreased by 20% or more from baseline to endpoint. A CGI-I responder refers to a subject who was categorized as “very much improved” or “much improved” in the CGI Global Improvement scale at endpoint.
Pharmacokinetic (PK) data of bifeprunox in schizophrenic subjects were also assessed and are presented in a separate report (combined with data from study S1543003).
as §1
CLINICAL STUDY TWO: A CGI responder is defined as a subject who is categorized as “very much improved” or “much improved” on the CGI Improvement scale. […] A notable difference between the 30 mg bifeprunox group and placebo was seen (p=0.039).

[3] = test system: adult subjects with schizophrenia; test: BPRS total score, Clinical Study Three; format: in vivo, human; conditions: for BPRS total score, treatment effect (bifeprunox—placebo): Endpoint LOCF; for mean change (SD) from Baseline to Endpoint in BPRS total score / Change from Baseline in BPRS Total Score, Mean (SD) / Change from Baseline in BPRS Total Score, Median / Change from Baseline in BPRS Total Score, Trt Effect (bifeprunox—placebo): LOCF; for mean change (SD) from Baseline to Endpoint in BPRS total score: ITT; for Change from Baseline in BPRS Total Score, Mean (SD) / Change from Baseline in BPRS Total Score, Median / Change from Baseline in BPRS Total Score, Trt Effect (bifeprunox—placebo): ITT population
Description: (§2) SECONDARY OBJECTIVES To assess the efficacy of bifeprunox in treating schizophrenia using the Positive Symptom sub-scale score of the PANSS, the Negative Symptom sub-scale score of the PANSS, the General Psychopathology sub-scale of the PANSS, Brief Psychiatric Rating Scale (BPRS) total score derived from the PANSS, BPRS psychosis score derived from the PANSS, the Clinical Global Impression Severity of Illness score (CGI-S), the Clinical Global Impression Improvement score (CGI-I), CGI-I responder rate, PANSS responder rate based on the PANSS total score, Calgary Depression Scale for Schizophrenia (CDSS), and Subject Satisfaction rating.
(§3) There were four treatment arms in this study, approximately 144 subjects per arm. […] After completing the Single-Blind Placebo Lead-in Period of at least three days, bifeprunox-treated subjects were titrated from 0.25 mg up to 20 mg/day or 30 mg/day according to a standardized titration scheme over a seven- or eight-day period, respectively. When the assigned dose was reached, subjects were maintained at that dose for the remainder of the six week treatment period. […] Subjects were hospitalized (if not already inpatients) after eligibility for study entry was verified, starting from the Screening Visit until at least 10 days after Baseline. Subjects could be hospitalized longer than 10 days if considered medically necessary by the Investigator. Rating scale assessments for efficacy and abnormal movement disorders were done weekly except for Week 5. […] Subject satisfaction with study medication was assessed at Week 6.

[4] = test system: adult subjects with schizophrenia; test: CGI Severity of Illness score, Clinical Study Three; format: in vivo, human; conditions: for CGI Severity of Illness Score, Trt Effect / Change from Baseline in CGI Severity of Illness Score, Mean (SD) / Change from Baseline in CGI Severity of Illness Score, Median / mean change (SD) from Baseline to Endpoint in CGI severity of illness score: LOCF; for CGI severity of illness score, treatment effect (bifeprunox—placebo): Endpoint LOCF; for mean change (SD) from Baseline to Endpoint in CGI severity of illness score: ITT
Description: as §2, §3

[5] = Clinical laboratory assessments (prolactin), Clinical Study Three; conditions: bifeprunox 20, 30 mg; 6 weeks
Description: To assess the safety and tolerability of bifeprunox using physical examination, weight, waist circumference, vital signs (pulse rate and systolic/diastolic blood pressure [BP], and oral temperature), 12-lead electrocardiogram (ECG), clinical laboratory assessments (hematology, biochemistry including fasting insulin level, fasting glucose, fasting lipid profile, urinalysis, special laboratory assessments for prolactin, IGF-1, IGFBP-3, and thyroid function), need for anticholinergic treatment during double-blind treatment period, concomitant medication use, adverse event (AE) monitoring, and assessments of abnormal movement including the Simpson-Angus Scale (SAS), Barnes Akathisia Scale (BAS), and Abnormal Involuntary Movement Scale (AIMS).

[6] = 'the mg bifeprunox group' (dose not given)
[7] = Bifeprunox 20 mg, Week 6/Endpoint
[8] = Bifeprunox 30 mg, Week 6/Endpoint

SMILES: O=c1[nH]c2cccc(N3CCN(Cc4cccc(-c5ccccc5)c4)CC3)c2o1 [Bifeprunox, 7-[4-([1,1′-biphenyl]-3-ylmethyl)-1-piperazinyl]-2(3H)-benzoxazolone]
- CGI Improvement No Change, % ([1]; Week 4): (21%)
- CGI Improvement Very Much Improved, % ([1]; Week 4): (7%)
- CGI Improvement Minimally Improved, % ([1]; Week 6/Endpoint): (26%)
- CGI Improvement Minimally Worse, % ([1]; Week 6/Endpoint): (11%)
- CGI Improvement Much Improved, % ([1]; Week 6/Endpoint): (19%)
- CGI Improvement Much Worse, % ([1]; Week 6/Endpoint): (15%)
- CGI Improvement No Change, % ([1]; Week 6/Endpoint): (20%)
- CGI Improvement Very Much Improved, % ([1]; Week 6/Endpoint): (9%)
- CGI Responder at Endpoint No, % ([2]; 30 mg): 64%
- CGI Responder at Endpoint Yes, % ([2]; 30 mg): 36%
- CGI Responder at Endpoint No, % ([2]; 40 mg): 72%
- CGI Responder at Endpoint Yes, % ([2]; 40 mg): 28%
- CGI-I responder rate (subjects much or very much improved) at Endpoint ([2]; bifeprunox 30 mg): 36%
- CGI-I responder rate (subjects much or very much improved) at Endpoint ([2]; bifeprunox 40 mg): 28%
- BPRS total score, treatment effect (bifeprunox—placebo) [3, 6]: −2.1
- mean change (SD) from Baseline to Endpoint in BPRS total score [3, 6]: −7.9 (12.0)
- Change from Baseline in BPRS Total Score, Mean (SD) ([3]; Bifeprunox 20 mg, Week 1): −3.2 (7.3)
- Change from Baseline in BPRS Total Score, Median ([3]; Bifeprunox 20 mg, Week 1): −3
- Change from Baseline in BPRS Total Score, Mean (SD) ([3]; Bifeprunox 20 mg, Week 2): −6.0 (9.1)
- Change from Baseline in BPRS Total Score, Median ([3]; Bifeprunox 20 mg, Week 2): −7
- Change from Baseline in BPRS Total Score, Mean (SD) ([3]; Bifeprunox 20 mg, Week 3): −7.5 (10.3)
- Change from Baseline in BPRS Total Score, Median ([3]; Bifeprunox 20 mg, Week 3): −8
- Change from Baseline in BPRS Total Score, Mean (SD) ([3]; Bifeprunox 20 mg, Week 4): −8.1 (11.3)
- Change from Baseline in BPRS Total Score, Median ([3]; Bifeprunox 20 mg, Week 4): −9
- Change from Baseline in BPRS Total Score, Mean (SD) [3, 7]: −8.5 (11.9)
- Change from Baseline in BPRS Total Score, Median [3, 7]: −8
- Change from Baseline in BPRS Total Score, Trt Effect (bifeprunox—placebo) [3, 7]: −2.1
- Change from Baseline in BPRS Total Score, Mean (SD) ([3]; Bifeprunox 30 mg, Week 1): −3.6 (7.3)
- Change from Baseline in BPRS Total Score, Median ([3]; Bifeprunox 30 mg, Week 1): −4
- Change from Baseline in BPRS Total Score, Mean (SD) ([3]; Bifeprunox 30 mg, Week 2): −5.2 (9.3)
- Change from Baseline in BPRS Total Score, Median ([3]; Bifeprunox 30 mg, Week 2): −6
- Change from Baseline in BPRS Total Score, Mean (SD) ([3]; Bifeprunox 30 mg, Week 3): −6.7 (10.7)
- Change from Baseline in BPRS Total Score, Median ([3]; Bifeprunox 30 mg, Week 3): −7
- Change from Baseline in BPRS Total Score, Mean (SD) ([3]; Bifeprunox 30 mg, Week 4): −7.3 (10.9)
- Change from Baseline in BPRS Total Score, Median ([3]; Bifeprunox 30 mg, Week 4): −8
- Change from Baseline in BPRS Total Score, Mean (SD) [3, 8]: −7.9 (12.0)
- Change from Baseline in BPRS Total Score, Median [3, 8]: −9
- Change from Baseline in BPRS Total Score, Trt Effect (bifeprunox—placebo) [3, 8]: −1.1
- mean change (SD) from Baseline to Endpoint in BPRS total score ([3]; bifeprunox 20 mg): −8.5 (11.9)
- BPRS total score, treatment effect (bifeprunox—placebo) ([3]; bifeprunox 30 mg): −1.1
- CGI Severity of Illness Score, Trt Effect ([4]; 20 mg versus placebo, Week 6/Endpoint): −0.13
- Change from Baseline in CGI Severity of Illness Score, Mean (SD) ([4]; 20 mg, Week 1): −0.23 (0.63)
- Change from Baseline in CGI Severity of Illness Score, Median ([4]; 20 mg, Week 1): 0.0
- Change from Baseline in CGI Severity of Illness Score, Mean (SD) ([4]; 20 mg, Week 2): −0.48 (0.81)
- Change from Baseline in CGI Severity of Illness Score, Median ([4]; 20 mg, Week 2): 0.0
- Change from Baseline in CGI Severity of Illness Score, Mean (SD) ([4]; 20 mg, Week 3): −0.59 (0.89)
- Change from Baseline in CGI Severity of Illness Score, Median ([4]; 20 mg, Week 3): −1.0
- Change from Baseline in CGI Severity of Illness Score, Mean (SD) ([4]; 20 mg, Week 4): −0.65 (0.95)
- Change from Baseline in CGI Severity of Illness Score, Median ([4]; 20 mg, Week 4): −1.0
- Change from Baseline in CGI Severity of Illness Score, Mean (SD) ([4]; 20 mg, Week 6/Endpoint): −0.63 (0.98)
- Change from Baseline in CGI Severity of Illness Score, Median ([4]; 20 mg, Week 6/Endpoint): −1.0
- CGI Severity of Illness Score, Trt Effect ([4]; 30 mg versus placebo, Week 6/Endpoint): −0.09
- Change from Baseline in CGI Severity of Illness Score, Mean (SD) ([4]; 30 mg, Week 1): −0.26 (0.60)
- Change from Baseline in CGI Severity of Illness Score, Median ([4]; 30 mg, Week 1): 0.0
- Change from Baseline in CGI Severity of Illness Score, Mean (SD) ([4]; 30 mg, Week 2): −0.41 (0.76)
- Change from Baseline in CGI Severity of Illness Score, Median ([4]; 30 mg, Week 2): 0.0
- Change from Baseline in CGI Severity of Illness Score, Mean (SD) ([4]; 30 mg, Week 3): −0.50 (0.90)
- Change from Baseline in CGI Severity of Illness Score, Median ([4]; 30 mg, Week 3): 0.0
- Change from Baseline in CGI Severity of Illness Score, Mean (SD) ([4]; 30 mg, Week 4): −0.57 (0.89)
- Change from Baseline in CGI Severity of Illness Score, Median ([4]; 30 mg, Week 4): −1.0
- Change from Baseline in CGI Severity of Illness Score, Mean (SD) ([4]; 30 mg, Week 6/Endpoint): −0.62 (1.03)
- Change from Baseline in CGI Severity of Illness Score, Median ([4]; 30 mg, Week 6/Endpoint): −1.0
- CGI severity of illness score, treatment effect (bifeprunox—placebo) ([4]; bifeprunox 20 mg): −0.13
- mean change (SD) from Baseline to Endpoint in CGI severity of illness score ([4]; bifeprunox 20 mg): −0.63 (0.98)
- CGI severity of illness score, treatment effect (bifeprunox—placebo) ([4]; bifeprunox 30 mg): −0.09
- mean change (SD) from Baseline to Endpoint in CGI severity of illness score ([4]; bifeprunox 30 mg): −0.62 (1.03)
- prolactin [5]: a decrease in prolactin
